{
  "source": "patent US20230116137A1",
  "about": "“METHODS FOR TREATING COLORECTAL AND METASTATIC COLORECTAL CANCERS” (Isofol Medical AB, priority 2017, published 2023)",
  "key": {"colorectal tumors": {"system": "colorectal tumors", "settings": "cited from earlier work"}, "solid tumours": {"system": "solid tumours", "settings": "cited from earlier work"}, "[1]": {"system": "solid tumors of stage IV metastatic colorectal cancer", "assay": "Treatment of patients diagnosed with stage IV metastatic colorectal cancer with bevacizumab, oxaliplatin, 5-FU and 6R-MTHF; CT measurement of lesions, RECIST 1.1", "format": "in vivo, human", "description": "The ORR may be calculated as follows: ORR=sum of partial responses plus complete responses as per RECIST 1.1 (a set of published rules that define when tumours in cancer patients progress during treatments)([Eisenhauer E A, Therasse P, Bogaerts J, Schwartz L H, Sargent D, Ford R, et al. New response evaluation criteria in solid tumours: revised RECIST guideline (version 1.1). Eur J Cancer. 2009 January; 45(2):228-47; incorporated by reference in its entirety]. As defined herein, a “complete response (CR)” means the disappearance of all target lesions. Any pathological lymph nodes (whether target or non-target) must have reduction in short axis to <10 mm. As used herein, a “partial response (PR)” means at least a 30% decrease in the sum of diameters of target lesions, taking as reference the baseline sum diameters.As used herein, “progressive disease (PD)” means at least a 20% increase in the sum of diameters of target lesions, taking as reference the smallest sum on study (this includes the baseline sum if that is the smallest on study). […] The appearance of one or more new lesions is also considered progression.\n(§1) Bevacizumab was administered at a dose of 5 mg/kg by intravenous infusion over 30 to 90 minutes. Following administration of bevacizumab, oxaliplatin was administered at a dose of 85 mg/m^2 by intravenous infusion between 15 and 120 minutes. Following oxaliplatin administration, 5-fluorouracil (5-FU) at a dose of 400 mg/m^2 was administered by intravenous bolus within 5 minutes. Thirty minutes after administration of the 5-FU intravenous bolus, 6R-MTHF at a dose of 60 mg/m^2 was administered by intravenous bolus (completed within 3 minutes). About 5 minutes after completion of the 6R-MTHF intravenous bolus administration, an intravenous infusion of 5-FU at a dose of 2,400 mg/m^2 was initiated. The infusion was paused to administer an intravenous bolus of 6R-MTHF at a dose of 60 mg/m^2 (completed within 3 minutes). The 5-FU infusion was maintained for 46 hours.\nas §1, §1"}, "colorectal cancer": {"system": "colorectal cancer", "settings": "Phase IIb study; cited from earlier work"}, "[2]": {"system": "metastatic colorectal cancer", "settings": "Phase II trial, previously untreated metastatic colorectal cancer; cited from earlier work"}, "pancreas cancer": {"system": "pancreas cancer", "settings": "CoFactor combined with 5-FU, phase I/II; cited from earlier work"}},
  "note": "Structures can show the parent of a compound that is named as a salt. Where two headings read alike, the source gives them in different places.",
  "data": [
    {"smiles": "O=c1[nH]cc(F)c(=O)[nH]1", "note": "[5-FU, 5-fluorouracil]", "values": [
      {"measurement": "response rate", "setting": "colorectal tumors; 5-FU given as a monotherapy", "result": "around 10%"},
      {"measurement": "overall response rate", "setting": "solid tumours; 5-FU alone", "result": "10-15%"}
    ]},
    {"smiles": "Nc1nc2c(c(=O)[nH]1)N1CN(c3ccc(C(=O)N[C@@H](CCC(=O)O)C(=O)O)cc3)C[C@H]1CN2", "note": "[6R-MTHF, [6R]-5,10-methylene tetrahydrofolate]", "values": [
      {"measurement": "tumor response", "setting": "[1]; Example 2 patient, second-line, 8-week treatment period", "result": "stable disease"},
      {"measurement": "size of lesions (CT)", "setting": "[1]; Example 2 patient, second-line, baseline 25, 13 and 12 mm (abdomen), after 8 weeks (CT at 10 weeks plus 2 days)", "result": "unchanged in size"},
      {"measurement": "size of lesion", "setting": "[1]; Example 3 patient, second-line, 9 mm lesion, between 16 and 24 weeks", "result": "unchanged in size"},
      {"measurement": "tumor response", "setting": "[1]; Example 3 patient, second-line, after 8 weeks", "result": "partial response and no progression"},
      {"measurement": "tumor response", "setting": "[1]; Example 3 patient, second-line, after 16 weeks", "result": "partial response and no progression"},
      {"measurement": "fate of 10 mm lesion", "setting": "[1]; Example 3 patient, second-line, baseline 10 and 16 mm (liver and lung), 8 weeks", "result": "disappearance"},
      {"measurement": "size of lesion (CT-verified)", "setting": "[1]; Example 3 patient, second-line, baseline 16 mm lesion, 8 weeks", "result": 13, "unit": "mm"},
      {"measurement": "tumor response", "setting": "[1]; Example 3 patient, second-line, between 16 and 24 weeks", "result": "no progression"},
      {"measurement": "size of lesion (CT-verified)", "setting": "[1]; Example 3 patient, second-line, lesion 16 mm at baseline, 13 mm at 8 weeks, after 16 weeks", "result": 9, "unit": "mm"},
      {"measurement": "tumor response", "setting": "[1]; Example 4 patient, second-line, 8-week treatment period", "result": "stable disease"},
      {"measurement": "size of lesion", "setting": "[1]; Example 4 patient, second-line, baseline 35 mm (liver), after 8 weeks", "result": "unchanged in size"},
      {"measurement": "size of lesion", "setting": "[1]; Example 4 patient, second-line, baseline 35 mm (liver), after 16 and 24 weeks", "result": "unchanged in size"},
      {"measurement": "tumor response", "setting": "[1]; Example 4 patient, second-line, through 24 weeks", "result": "no progression"},
      {"measurement": "size of lesion", "setting": "[1]; Example 5 patient, second-line, baseline 80 mm (liver), after 8 weeks", "result": 96, "unit": "mm"},
      {"measurement": "tumor response", "setting": "[1]; Example 6 patient, second-line, 8-week treatment period", "result": "stable disease"},
      {"measurement": "size of lesion", "setting": "[1]; Example 6 patient, second-line, 41 mm lesion (baseline 44 mm), after 16 weeks", "result": "unchanged in size"},
      {"measurement": "size of lesion", "setting": "[1]; Example 6 patient, second-line, baseline 44 mm (liver), after 8 weeks", "result": 41, "unit": "mm"},
      {"measurement": "tumor response", "setting": "[1]; Example 6 patient, second-line, through 16 weeks", "result": "stable disease and no progression"},
      {"measurement": "tumor response", "setting": "[1]; Example 7 patient, second-line, 8-week treatment period", "result": "stable disease and no progression"},
      {"measurement": "size of lesion", "setting": "[1]; Example 7 patient, second-line, baseline 22 mm (liver), after 8 weeks", "result": "unchanged in size"},
      {"measurement": "size of lesion", "setting": "[1]; Example 7 patient, second-line, baseline 22 mm (liver), after additional four cycles (8 weeks)", "result": "unchanged in size"},
      {"measurement": "tumor response", "setting": "[1]; Example 7 patient, second-line, through 16 weeks", "result": "no progression"},
      {"measurement": "tumor response", "setting": "[1]; Example 8 patient, first-line, 8-week treatment period", "result": "stable disease and no progression"},
      {"measurement": "size of lesion", "setting": "[1]; Example 8 patient, first-line, baseline 72 mm (liver), after 8 weeks", "result": 59, "unit": "mm"},
      {"measurement": "size of lesion", "setting": "[1]; Example 8 patient, first-line, baseline 72 mm, 59 mm at 8 weeks, after 16 weeks", "result": 53, "unit": "mm"},
      {"measurement": "tumor response", "setting": "[1]; Example 8 patient, first-line, through 16 weeks", "result": "stable disease and no progression"},
      {"measurement": "tumor response", "setting": "[1]; Example 9 patient, second-line, 8-week treatment period", "result": "stable disease and no progression"},
      {"measurement": "tumor response", "setting": "[1]; Example 9 patient, second-line, 16-week treatment period", "result": "stable disease and no progression"},
      {"measurement": "size of lesion", "setting": "[1]; Example 9 patient, second-line, baseline 57 mm (abdomen), after 8 weeks", "result": 56, "unit": "mm"},
      {"measurement": "size of lesion", "setting": "[1]; Example 9 patient, second-line, baseline 57 mm, 56 mm at 8 weeks, after 16 weeks", "result": 57, "unit": "mm"},
      {"measurement": "tumor response", "setting": "[1]; Example 10 patient, second-line, 8-week treatment period", "result": "stable disease and no progression"},
      {"measurement": "tumor response", "setting": "[1]; Example 10 patient, second-line, 16-week treatment period", "result": "stable disease and no progression"},
      {"measurement": "size of lesion", "setting": "[1]; Example 10 patient, second-line, 188 mm lesion (baseline 250 mm), after 16 weeks", "result": "unchanged in size"},
      {"measurement": "size of lesion", "setting": "[1]; Example 10 patient, second-line, baseline 250 mm (abdomen), after 8 weeks", "result": 188, "unit": "mm"},
      {"measurement": "size of lesion", "setting": "[1]; Example 11 patient, first-line, baseline 77 mm (liver), after 8 weeks", "result": 89, "unit": "mm"},
      {"measurement": "tumor response", "setting": "[1]; Example 12 patient, second-line, 8-week treatment period", "result": "stable disease"},
      {"measurement": "size of lesion", "setting": "[1]; Example 12 patient, second-line, baseline 26 mm (lung), after 8 weeks", "result": 30, "unit": "mm"}
    ]},
    {"smiles": "Nc1nc(=O)c2c([nH]1)NCC1CN(c3ccc(C(=O)N[C@@H](CCC(=O)[O-])C(=O)[O-])cc3)CN21.[Ca+2]", "note": "(stereo partly drawn) [CoFactor, (dl)-5,10,-methylenepteroyl-monoglutamate calcium salt]", "values": [
      {"measurement": "efficacy and safety versus leucovorin arm", "setting": "colorectal cancer", "result": "no significant differences"},
      {"measurement": "overall response rate", "setting": "[2]", "result": 35, "unit": "%"},
      {"measurement": "clinical benefit, defined as stable disease or tumor response, proportion of patients", "setting": "pancreas cancer", "result": 40, "unit": "%"}
    ]},
    {"smiles": "Nc1nc2c(c(=O)[nH]1)N(C=O)C(CNc1ccc(C(=O)N[C@@H](CCC(=O)O)C(=O)O)cc1)CN2", "note": "(some centres unmarked) [LV, calcium salt of 5-formyl-5,6,7,8-tetrahydrofolic acid]", "values": [
      {"measurement": "response rate", "setting": "colorectal tumors; LV added to 5-FU", "result": 21, "unit": "%"},
      {"measurement": "overall response rate", "setting": "solid tumours; LV added to 5-FU", "result": "over 20%"}
    ]}
  ]
}
